Laboratory results reported in patent US20130310344A1, “N-ACYLSULFONAMIDE APOPTOSIS PROMOTERS” (ASTRAZENECA AB, priority 2010, published 2013).
pIC50: −log10 of the molar value. Structures can show the parent of a compound that is named as a salt.

Key:
Bcl-XL = target: T1, Bcl-XL (Homo sapiens, UniProt Q07817); assay: Bcl-XL FP assay (competitive fluorescence polarization binding assay, FITC-Bim BH-3 peptide tracer); details: C-terminal 6×HIS tagged Bcl-XL (aa 1-209), 0.8 nM; 2 nM FITC-Bim peptide tracer
T1 construct: a C-terminal 6×HIS tagged Bcl-XL (aa 1-209); 6xHis (C)
From the text: (§1) Bcl-xL and Bcl-2 FP binding affinity of compound(s) of Formulae (I), (I-a), (I-b), (I-c), (I-d) and/or (I-e) may be determined using a variety of known methods. One such assay is a sensitive and quantitative in vitro binding assay using fluorescence polarization (“FP”) described by Wang, J.-L.; Zhang, Z-J.; Choksi, S.; Sjam. S.; Lu, Z.; Croce, C. M.; Alnemri, E. S.; Komgold, R.; Huang, Z. Cell permeable Bcl-2 binding peptides: a chemical approach to apoptosis induction in tumor cells. Cancer Res. 2000, 60, 1498-1502).
(§2) Additionally, the binding affinity of compound(s) of Formulae (I), (I-a), (I-b), (I-c), (I-d) and/or (I-e) to Bcl-2 protein in vitro was determined by a competitive binding assay based on fluorescence polarization. For example, fluorescence polarization (“FP”) assays may be developed using a c-terminal 6×HIS tagged Bcl-2 (aa 1-204) and a C-terminal 6×HIS tagged Bcl-XL (aa 1-209). […] Dilutions of either Bcl-2 (1.3 nM) or Bcl-XL (0.8 nM) may be added to serial dilutions of antagonist and incubated for one hour prior to the addition of 2 nM of fluorescent peptide tracer (Anaspec, Fremont, Calif.) in the assay buffer. Final assay buffer conditions may be 20 mM HEPES, pH 7.5, 1 mM DTT, 0.005% Tween-20 and 50 mM NaCl. Samples may be read after 20-minute incubation. Fluorescence polarization values may be plotted as a function of the antagonist concentration.

Bcl-2 = target: T2, Bcl-2 (Homo sapiens, UniProt P10415); assay: Bcl-2 FP assay (competitive fluorescence polarization binding assay, FITC-Bim BH-3 peptide tracer); details: c-terminal 6×HIS tagged Bcl-2 (aa 1-204), 1.3 nM; 2 nM FITC-Bim peptide tracer
T2 construct: a c-terminal 6×HIS tagged Bcl-2 (aa 1-204); 6xHis (C)
From the text: as §1, §2

T1 sequence (Q07817 1-209): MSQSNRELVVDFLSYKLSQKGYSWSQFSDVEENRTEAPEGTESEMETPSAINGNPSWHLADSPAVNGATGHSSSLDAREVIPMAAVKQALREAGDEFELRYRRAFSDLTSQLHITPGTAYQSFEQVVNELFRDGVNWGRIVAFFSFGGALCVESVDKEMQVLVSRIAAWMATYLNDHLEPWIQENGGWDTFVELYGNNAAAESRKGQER
T2 sequence (P10415 1-204): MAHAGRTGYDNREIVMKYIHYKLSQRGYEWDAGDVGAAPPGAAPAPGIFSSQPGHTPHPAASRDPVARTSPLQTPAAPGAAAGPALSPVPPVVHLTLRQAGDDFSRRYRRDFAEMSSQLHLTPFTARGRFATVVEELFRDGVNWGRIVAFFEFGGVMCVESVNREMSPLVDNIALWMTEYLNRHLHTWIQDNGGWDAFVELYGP

SMILES	pIC50 (Bcl-XL)	pIC50 (Bcl-2)
O=C(NS(=O)(=O)c1ccc(N[C@H](CCN2CCO[C@@H](CO)C2)CSc2ccccc2)c(S(=O)(=O)C(F)(F)F)c1)c1ccc(N2CCC([C@@H](O)c3ccccc3-c3ccc(Cl)cc3)CC2)cc1 [Example 22, 4-(4-((R)-(4′-chlorobiphenyl-2-yl)(hydroxy)methyl)piperidin-1-yl)-N-(4-((R)-4-((R)-2-(hydroxymethyl)morpholino)-1-(phenylthio)butan-2-ylamino)-3-(trifluoromethylsulfonyl)phenylsulfonyl)benzamide, formic acid salt]	8.52	9.22
O=C(NS(=O)(=O)c1ccc(N[C@H](CCN2CCO[C@H](CO)C2)CSc2ccccc2)c(S(=O)(=O)C(F)(F)F)c1)c1ccc(N2CCC([C@@H](O)c3ccccc3-c3ccc(Cl)cc3)CC2)cc1 [Example 23, 4-(4-((R)-(4′-chlorobiphenyl-2-yl)(hydroxy)methyl)piperidin-1-yl)-N-(4-((R)-4-((S)-2-(hydroxymethyl)morpholino)-1-(phenylthio)butan-2-ylamino)-3-(trifluoromethylsulfonyl)phenylsulfonyl)benzamide, formic acid salt]	9.00	9.00
CC(C)(C)OP(=O)(O)OCO[C@@H](c1ccccc1-c1ccc(Cl)cc1)C1CCN(c2ccc(C(=O)NS(=O)(=O)c3ccc(N[C@H](CCN4CCOCC4)CSc4ccccc4)c(S(=O)(=O)C(F)(F)F)c3)cc2)CC1 [Example 28, tert-Butyl((R)-(4′-chlorobiphenyl-2-yl)(1-(4-(4-((R)-4-morpholino-1-(phenylthio)butan-2-ylamino)-3-(trifluoromethylsulfonyl)phenylsulfonylcarbamoyl)-phenyl)piperidin-4-yl)methoxy)methyl hydrogen phosphate]	8.70	8.40
CCOP(=O)(OCC)O[C@@H](c1ccccc1-c1ccc(Cl)cc1)C1CCN(c2ccc(C(=O)NS(=O)(=O)c3ccc(N[C@H](CCN4CCOCC4)CSc4ccccc4)c(S(=O)(=O)C(F)(F)F)c3)cc2)CC1 [Example 29, (R)-(4′-chlorobiphenyl-2-yl)(1-(4-(4-((R)-4-morpholino-1-(phenylthio)butan-2-ylamino)-3-(trifluoromethylsulfonyl)phenylsulfonylcarbamoyl)phenyl)piperidin-4-yl)methyl diethyl phosphate, hydrochloride salt]	7.92	7.52
COP(=O)(O)O[C@@H](c1ccccc1-c1ccc(Cl)cc1)C1CCN(c2ccc(C(=O)NS(=O)(=O)c3ccc(N[C@H](CCN4CCOCC4)CSc4ccccc4)c(S(=O)(=O)C(F)(F)F)c3)cc2)CC1 [Example 30, (R)-(4′-chlorobiphenyl-2-yl)(1-(4-(4-((R)-4-morpholino-1-(phenylthio)butan-2-ylamino)-3-(trifluoromethylsulfonyl)phenylsulfonylcarbamoyl)phenyl)piperidin-4-yl)methyl methyl hydrogen phosphate, hydrochloride salt]	9.00	9.00
N[C@@H](c1ccccc1-c1ccc(Cl)cc1)C1CCN(c2ccc(C(=O)NS(=O)(=O)c3ccc(N[C@H](CCN4CCOCC4)CSc4ccccc4)c(S(=O)(=O)C(F)(F)F)c3)cc2)CC1 [Example 33, 4-(4-((R)-amino(4′-chlorobiphenyl-2-yl)methyl)piperidin-1-yl)-N-(4-((R)-4-morpholino-1-(phenylthio)butan-2-ylamino)-3-(trifluoromethylsulfonyl)phenylsulfonyl)benzamide, formic acid salt]	7.48	7.52
CNCC(=O)N[C@@H](c1ccccc1-c1ccc(Cl)cc1)C1CCN(c2ccc(C(=O)NS(=O)(=O)c3ccc(N[C@H](CCN4CCOCC4)CSc4ccccc4)c(S(=O)(=O)C(F)(F)F)c3)cc2)CC1 [Example 34, 4-(4-((R)-(4′-chlorobiphenyl-2-yl)(2-(methylamino)acetamido)methyl)piperidin-1-yl)-N-(4-((R)-4-morpholino-1-(phenylthio)butan-2-ylamino)-3-(trifluoromethylsulfonyl)phenylsulfonyl)benzamide, hydrochloride salt]	7.72	7.57
NCC(=O)N[C@@H](c1ccccc1-c1ccc(Cl)cc1)C1CCN(c2ccc(C(=O)NS(=O)(=O)c3ccc(N[C@H](CCN4CCOCC4)CSc4ccccc4)c(S(=O)(=O)C(F)(F)F)c3)cc2)CC1 [Example 35, 4-(4-((R)-(2-aminoacetamido)(4′-chlorobiphenyl-2-yl)methyl)piperidin-1-yl)-N-(4-((R)-4-morpholino-1-(phenylthio)butan-2-ylamino)-3-(trifluoromethylsulfonyl)phenylsulfonyl)benzamide hydrochloride salt]	7.66	7.42
CN(C)[C@@H](c1ccccc1-c1ccc(Cl)cc1)C1CCN(c2ccc(C(=O)NS(=O)(=O)c3ccc(N[C@H](CCN4CCOCC4)CSc4ccccc4)c(S(=O)(=O)C(F)(F)F)c3)cc2)CC1 [Example 36, 4-(4-((R)-(4′-chlorobiphenyl-2-yl)(dimethylamino)methyl)piperidin-1-yl)-N-(4-((R)-4-morpholino-1-(phenylthio)butan-2-ylamino)-3-(trifluoromethylsulfonyl)phenylsulfonyl)benzamide, hydrochloride salt]	7.74	7.62
